# Measured values reported in PMC5053523, “In Vitro Antibacterial Activity of Rhodanine Derivatives against Pathogenic Clinical Isolates” (PLoS ONE, 2016).
# Read-outs that look alike come from different tables or passages of the source.
# Tests used:
# K. pneumoniae = test: Broth microdilution MIC, K. pneumoniae; type: cell-based
# Acinetobacter baumannii [1] = test: MIC with/without sub-MIC colistin, Acinetobacter baumannii; type: cell-based
# How it was run: (§1)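 Rhodanines and control antibiotics are tested for MIC against Gram-negative bacteria while a sub-inhibitory level of colistin or PMBN is present. A strain of E. coli lacking the AcrAB efflux pump (SM1411ΔacrAB) serves as an additional test organism.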
# [2] = test system: methicillin-resistant Staphylococcus aureus (MRSA); test: Broth microdilution MIC/MBC, MRSA; type: cell-based; conditions: for MIC50 / MIC90: 11 MRSA strains
# Escherichia coli O157:H7 = test: MIC with/without sub-MIC colistin, Escherichia coli O157:H7; type: cell-based
# How it was run: as §1
# MRSA USA300 = test: MIC against MRSA USA300 with and without 4% human serum albumin; type: cell-based, Staphylococcus aureus; conditions: Staphylococcus aureus, read-out: MIC against MRSA USA300
# How it was run: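 Broth microdilution MIC per CLSI against MRSA USA300, run in tryptic soy broth alone and with 4% human serum albumin. MIC is the lowest concentration inhibiting growth.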
# Candida albicans = test: MIC against Candida albicans; type: cell-based; conditions: table prints none, read-out: MIC
# Pseudomonas aeruginosa [3] = test: MIC with/without sub-MIC colistin, Pseudomonas aeruginosa; type: cell-based
# How it was run: as §1
# B. licheniformis = test: Broth microdilution MIC/MBC, B. licheniformis; type: cell-based; conditions: Bacillus licheniformis; for MBC: read-out: MBC; for MIC: read-out: MIC
# Acinetobacter baumannii [4] = test: Broth microdilution MIC, Acinetobacter baumannii; type: cell-based
# Pseudomonas aeruginosa [5] = test: MIC with/without PMBN, Pseudomonas aeruginosa; type: cell-based
# How it was run: as §1
# [6] = test system: vancomycin resistant enterococci (VRE); test: Broth microdilution MIC50/MIC90, VRE panel; type: cell-based; conditions: 10 VRE strains; for MIC90: read-out: MIC 90; for MIC50: read-out: MIC 50
# Klebsiella pneumoniae [7] = test: MIC with/without sub-MIC colistin, Klebsiella pneumoniae; type: cell-based
# How it was run: as §1
# Bacillus anthracis = test: microbe, parasite or virus in culture; type: cell-based
# Acinetobacter baumannii [8] = test: MIC with/without PMBN, Acinetobacter baumannii; type: cell-based
# How it was run: as §1
# Klebsiella pneumoniae [9] = test: MIC with/without PMBN, Klebsiella pneumoniae; type: cell-based
# How it was run: as §1
# Salmonella Typhimurium = test: MIC with/without sub-MIC colistin, Salmonella Typhimurium; type: cell-based
# How it was run: as §1
# [10] = Acinetobacter baumannii ATCC BAA747, colistin (+) […], read-out: MIC
# [11] = Acinetobacter baumannii ATCC BAA19606, colistin (+) […], read-out: MIC
# [12] = Acinetobacter baumannii, ATCCBAA747
# [13] = Acinetobacter baumannii, ATCCBAA19606
# [14] = Escherichia coli O157:H7 ATCC 35150, colistin (+) […], read-out: MIC
# [15] = Escherichia coli O157:H7 ATCC 700728, colistin (+) […], read-out: MIC
# [16] = ATCC10231, C. albicans ATCC 10231, unit from abstract
# [17] = C. albicans NR 29434, unit from abstract
# [18] = C. albicans NR 29435, unit from abstract
# [19] = C. albicans NR29437, unit from abstract
# [20] = C. albicans NR29438, unit from abstract
# [21] = C. albicans NR 29446, unit from abstract
# [22] = C. albicans NR 29448, unit from abstract
# [23] = C. albicans NR 29449, unit from abstract
# [24] = C. albicans NR 29453, unit from abstract
# [25] = C. albicans NR 294436, unit from abstract
# [26] = Pseudomonas aeruginosa ATCC 921, colistin (+) […], read-out: MIC
# [27] = Pseudomonas aeruginosa, ATCC921
# [28] = NCIB9375, B. licheniformis Gibson 46 (NCIB 9375) NR-2494
# [29] = NRS712, B. licheniformis NRS 712 NR-2499
# [30] = Pseudomonas aeruginosa ATCC 9721, PMBN (+) 4 μg/mL, read-out: MIC
# [31] = Pseudomonas aeruginosa, ATCC9721
# [32] = Klebsiella pneumoniae ATCC BAA 2146, colistin (+) […]
# [33] = Acinetobacter baumannii ATCC BAA747, PMBN (+) 4 μg/mL, read-out: MIC
# [34] = Acinetobacter baumannii ATCC BAA19606, PMBN (+) 4 μg/mL, read-out: MIC
# [35] = Klebsiella pneumoniae ATCC BAA 1706, PMBN (+) 4 μg/mL
# [36] = Klebsiella pneumoniae ATCC BAA 2146, PMBN (+) 4 μg/mL
# [37] = Salmonella Typhimurium ATCC 700720, colistin (+) […], read-out: MIC
# [38] = Salmonella enterica, ATCC 700720 / TYPHIMURIUM
smiles,measurement,setting,value
O=C(O)[C@H](Cc1ccccc1)N1C(=O)/C(=C/c2cccc(-c3ccc(Cl)c(Cl)c3)c2)SC1=S [Rh 2],MIC,K. pneumoniae; K. pneumoniae NR-15417,>128 µM
same,MIC,K. pneumoniae; Klebsiella pneumoniae,> 128 µM
same,MIC,Acinetobacter baumannii [1]; [10],>64 µM
same,MIC,Acinetobacter baumannii [1]; [11],>64 µM
same,MIC,Acinetobacter baumannii [1]; [12],> 128 µM
same,MIC,Acinetobacter baumannii [1]; [13],> 128 µM
same,MIC50,[2],4 µM
same,MIC90,[2],4 µM
same,MBC,[2]; MRSA NRS 1,4 µM
same,MIC,[2]; MRSA NRS 1,4 µM
same,MBC,[2]; MRSA NRS 19,4 µM
same,MIC,[2]; MRSA NRS 19,4 µM
same,MBC,[2]; MRSA NRS 37,4 µM
same,MIC,[2]; MRSA NRS 37,4 µM
same,MBC,[2]; MRSA NRS 107,16 µM
same,MIC,[2]; MRSA NRS 107,8 µM
same,MBC,[2]; MRSA NRS 119,4 µM
same,MIC,[2]; MRSA NRS 119,4 µM
same,MBC,[2]; MRSA NRS 382,4 µM
same,MIC,[2]; MRSA NRS 382,4 µM
same,MBC,[2]; MRSA NRS 383,4 µM
same,MIC,[2]; MRSA NRS 383,4 µM
same,MBC,[2]; MRSA NRS 384,16 µM
same,MIC,[2]; MRSA NRS 384,4 µM
same,MBC,[2]; MRSA NRS 385,4 µM
same,MIC,[2]; MRSA NRS 385,4 µM
same,MBC,[2]; MRSA NRS 386,8 µM
same,MIC,[2]; MRSA NRS 386,4 µM
same,MBC,[2]; MRSA NRS 387,4 µM
same,MIC,[2]; MRSA NRS 387,4 µM
same,MIC,Escherichia coli O157:H7; [14],>64 µM
same,MIC,Escherichia coli O157:H7; [15],>64 µM
same,MIC,"Escherichia coli O157:H7; Escherichia coli, ATCC35150",> 128 µM
same,MIC,"Escherichia coli O157:H7; Escherichia coli, ATCC700728",> 128 µM
same,MIC,"MRSA USA300; 24 h, Media TSB + 4% HSA",> 64 µM
same,MIC,MRSA USA300; Media TSB,4 µM
same,MIC,Candida albicans; [16],> 64 µM
same,MIC,Candida albicans; [17],> 64 µM
same,MIC,Candida albicans; [18],> 64 µM
same,MIC,Candida albicans; [19],> 64 µM
same,MIC,Candida albicans; [20],> 64 µM
same,MIC,Candida albicans; [21],> 64 µM
same,MIC,Candida albicans; [22],> 64 µM
same,MIC,Candida albicans; [23],> 64 µM
same,MIC,Candida albicans; [24],> 64 µM
same,MIC,Candida albicans; [25],> 64 µM
same,MIC,Pseudomonas aeruginosa [3]; [26],>64 µM
same,MIC,Pseudomonas aeruginosa [3]; [27],> 128 µM
same,MBC,B. licheniformis; [28],2 µM
same,MIC,B. licheniformis; [28],2 µM
same,MBC,B. licheniformis; [29],4 µM
same,MIC,B. licheniformis; [29],4 µM
same,MIC,Acinetobacter baumannii [4]; ATCC13345,> 128 µM
same,MIC,Acinetobacter baumannii [4]; ATCC17786,> 128 µM
same,MIC,Pseudomonas aeruginosa [5]; [30],>64 µM
same,MIC,Pseudomonas aeruginosa [5]; [31],> 128 µM
same,MIC90,[6],4 µM
same,MIC90,"[6]; Enterococcus, VRE",8 µM
same,MIC50,[6]; Enterococcus,4 µM
same,MIC,Klebsiella pneumoniae [7]; [32],>64 µM
same,MIC,"Klebsiella pneumoniae [7]; Klebsiella pneumoniae, BAA2146",> 128 µM
same,MBC,Bacillus anthracis; Bacillus anthracis AMES35,2 µM
same,MIC,Bacillus anthracis; Bacillus anthracis AMES35,2 µM
same,MBC,Bacillus anthracis; Bacillus anthracis UM23,2 µM
same,MIC,Bacillus anthracis; Bacillus anthracis UM23,2 µM
same,MBC,Bacillus anthracis; Bacillus anthracis Weybridge,2 µM
same,MIC,Bacillus anthracis; Bacillus anthracis Weybridge,2 µM
same,MIC,Acinetobacter baumannii [8]; [33],>64 µM
same,MIC,Acinetobacter baumannii [8]; [34],>64 µM
same,MIC,Acinetobacter baumannii [8]; [12],> 128 µM
same,MIC,Acinetobacter baumannii [8]; [13],> 128 µM
same,MIC,Klebsiella pneumoniae [9]; [35],>64 µM
same,MIC,Klebsiella pneumoniae [9]; [36],>64 µM
same,MIC,"Klebsiella pneumoniae [9]; Klebsiella pneumoniae, BAA1706",> 128 µM
same,MIC,"Klebsiella pneumoniae [9]; Klebsiella pneumoniae, BAA2146",> 128 µM
same,MIC,Salmonella Typhimurium; [37],>64 µM
same,MIC,Salmonella Typhimurium; [38],> 128 µM
O=C(O)[C@@H](Cc1ccccc1)N1C(=O)/C(=C/c2cccc(Oc3ccc(F)cc3)c2)SC1=S [Rh 4],MIC,K. pneumoniae; K. pneumoniae NR-15417,>128 µM
same,MIC,K. pneumoniae; Klebsiella pneumoniae,> 128 µM
same,MIC,Acinetobacter baumannii [1]; [10],>64 µM
same,MIC,Acinetobacter baumannii [1]; [11],>64 µM
same,MIC,Acinetobacter baumannii [1]; [12],> 128 µM
same,MIC,Acinetobacter baumannii [1]; [13],> 128 µM
same,MIC50,[2],16 µM
same,MIC90,[2],32 µM
same,MBC,[2]; MRSA NRS 1,32 µM
same,MIC,[2]; MRSA NRS 1,16 µM
same,MBC,[2]; MRSA NRS 19,32 µM
same,MIC,[2]; MRSA NRS 19,16 µM
same,MBC,[2]; MRSA NRS 37,32 µM
same,MIC,[2]; MRSA NRS 37,32 µM
same,MBC,[2]; MRSA NRS 107,32 µM
same,MIC,[2]; MRSA NRS 107,16 µM
same,MBC,[2]; MRSA NRS 119,32 µM
same,MIC,[2]; MRSA NRS 119,16 µM
same,MBC,[2]; MRSA NRS 382,16 µM
same,MIC,[2]; MRSA NRS 382,16 µM
same,MBC,[2]; MRSA NRS 383,32 µM
same,MIC,[2]; MRSA NRS 383,32 µM
same,MBC,[2]; MRSA NRS 384,64 µM
same,MIC,[2]; MRSA NRS 384,16 µM
same,MBC,[2]; MRSA NRS 385,32 µM
same,MIC,[2]; MRSA NRS 385,16 µM
same,MBC,[2]; MRSA NRS 386,> 64 µM
same,MIC,[2]; MRSA NRS 386,16 µM
same,MBC,[2]; MRSA NRS 387,64 µM
same,MIC,[2]; MRSA NRS 387,16 µM
same,MIC,Escherichia coli O157:H7; [14],>64 µM
same,MIC,Escherichia coli O157:H7; [15],>64 µM
same,MIC,"Escherichia coli O157:H7; Escherichia coli, ATCC35150",> 128 µM
same,MIC,"Escherichia coli O157:H7; Escherichia coli, ATCC700728",> 128 µM
same,MIC,"MRSA USA300; 24 h, Media TSB + 4% HSA",> 64 µM
same,MIC,MRSA USA300; Media TSB,16 µM
same,MIC,Candida albicans; [16],> 64 µM
same,MIC,Candida albicans; [17],> 64 µM
same,MIC,Candida albicans; [18],> 64 µM
same,MIC,Candida albicans; [19],> 64 µM
same,MIC,Candida albicans; [20],> 64 µM
same,MIC,Candida albicans; [21],64 µM
same,MIC,Candida albicans; [22],> 64 µM
same,MIC,Candida albicans; [23],> 64 µM
same,MIC,Candida albicans; [24],> 64 µM
same,MIC,Candida albicans; [25],> 64 µM
same,MIC,Pseudomonas aeruginosa [3]; [26],>64 µM
same,MIC,Pseudomonas aeruginosa [3]; [27],> 128 µM
same,MBC,B. licheniformis; [28],16 µM
same,MIC,B. licheniformis; [28],16 µM
same,MBC,B. licheniformis; [29],16 µM
same,MIC,B. licheniformis; [29],16 µM
same,MIC,Acinetobacter baumannii [4]; ATCC13345,> 128 µM
same,MIC,Acinetobacter baumannii [4]; ATCC17786,> 128 µM
same,MIC,Pseudomonas aeruginosa [5]; [30],>64 µM
same,MIC,Pseudomonas aeruginosa [5]; [31],> 128 µM
same,MIC90,"[6]; Enterococcus, VRE",32 µM
same,MIC50,[6]; Enterococcus,32 µM
same,MIC,Klebsiella pneumoniae [7]; [32],>64 µM
same,MIC,"Klebsiella pneumoniae [7]; Klebsiella pneumoniae, BAA2146",> 128 µM
same,MBC,Bacillus anthracis; Bacillus anthracis AMES35,4 µM
same,MIC,Bacillus anthracis; Bacillus anthracis AMES35,4 µM
same,MBC,Bacillus anthracis; Bacillus anthracis UM23,4 µM
same,MIC,Bacillus anthracis; Bacillus anthracis UM23,4 µM
same,MBC,Bacillus anthracis; Bacillus anthracis Weybridge,4 µM
same,MIC,Bacillus anthracis; Bacillus anthracis Weybridge,4 µM
same,MIC,Acinetobacter baumannii [8]; [33],>64 µM
same,MIC,Acinetobacter baumannii [8]; [34],>64 µM
same,MIC,Acinetobacter baumannii [8]; [12],> 128 µM
same,MIC,Acinetobacter baumannii [8]; [13],> 128 µM
same,MIC,Klebsiella pneumoniae [9]; [35],>64 µM
same,MIC,Klebsiella pneumoniae [9]; [36],>64 µM
same,MIC,"Klebsiella pneumoniae [9]; Klebsiella pneumoniae, BAA1706",> 128 µM
same,MIC,"Klebsiella pneumoniae [9]; Klebsiella pneumoniae, BAA2146",> 128 µM
same,MIC,Salmonella Typhimurium; [37],>64 µM
same,MIC,Salmonella Typhimurium; [38],> 128 µM
